Experimental data published in patent US20130252903A1, “COMPOSITIONS FOR REDUCING OXIDATIVE STRESS AND USES THEREOF” (Universitaetsklinikum Muenster, priority 2007, published 2013).
Square brackets hold non-standard residues; d marks the D form. Ends that are not written are not given here.

Tests used:
human dermal fibroblasts = experiment: UVA-induced intracellular amplification of ROS (dihydrorhodamine 123, flow cytometry); format: cell-based; details: for effect on UVA-induced intracellular amplification of ROS compared with vitamin C (ascorbate): peptide 10^-8M vs vitamin C 10^-2M, FIG. 2; for effect on UVA-induced intracellular amplification of ROS ("oxidative stress"): peptide 10^-8 M, 24 h pre-incubation, UVA 10 J/cm^2, human dermal fibroblasts, FIG. 1, p<0.001
Protocol: The modulating effect of the tripeptides Lys-Pro-Val (KPV), Lys-D-Pro-Thr (KPT) and Thyrotropin Releasing Hormones (TRH, Protirelin, Thyoliberin, pGlu-His-Pro) was examined on human dermal fibroblasts that were seeded into 3.5 cm^2 tissue culture dishes in a density of 150,000 per dish in […] medium. Two days after seeding the cells, the medium supplemented with 10% foetal calf serum, 1% L-glutamine and 1% penicillin/streptomycin was exchanged with serum-free RPMI medium and pre-incubated for 24 hours with KPV, […] Subsequently, the cells were exposed to a physiological dose of UVA radiation (10 J/cm^2). Immediately after radiation, the cells were incubated with 5 μM dihydrorhodamine 123 plus 5 mM glucose in phosphate buffer (PBS) for 30 minutes. Subsequently, the cells were trypsinized, resuspended in PBS with 5 mM glucose and analyzed by means of flow cytometry (FACS, FACSCalibur with 488 nm argon laser). The above dihydrorhodamine probe is oxidized in the presence of intracellular ROS into green fluorescent […] and, thus, can be measured fluorometrically. A total of 10×10^3 cells per probe were analyzed and evaluated using CELL-QUEST software. The median of the FL-1 channel was used as parameter for the intracellular ROS amount, since it represents the maximum number of cells with the highest fluorescence. Duplicate and triplicate analyses were carried out and all assays were reproduced three times in independent experiments.

B16.F1 melanoma cells = experiment: Extracellular melanin accumulation (in situ melanin assay, optical density 405 nm); format: cell-based, mouse; details: 72 hrs; for melanotropic effect (extracellular melanin accumulation): peptides at 10^-6, 10^-8 and 10^-10 M, FIG. 3
Text: It is also preferred that the compounds of the invention have no or merely a negligible melanotropic effect. “Melanotropic effect” means that the compound induces the extracellular melanin accumulation in a cell assay in accordance with the method described in the appended example 2 and/or in accordance with the method described in Siegrist and Eberle (Anal. Biochem. 1986; 159; 191-197), title “In situ melanin assay for MSH using mouse B16 melanoma cells in culture”. “No or negligible” means that the mean melanin accumulation which is induced by the compounds of the invention exceeds the mean melanin accumulation which is induced by at least one of the two compounds as exemplified in Example 2 by not more than about 40%, 30%, 20%, 15%, 10%, 5%, 2.5%, 2% or 1%, preferably under conditions which equate to or are identical with those set out in Example 2. The skilled person is able to justify which assay conditions/assays equate with the assay/conditions exemplified in the appended examples. The melanin accumulation evaluated in Example 2 is depicted in FIG. 3. The effect of the compounds of the invention on extracellular melanin accumulation is thus determinable by the methods disclosed herein.
To exclude a potential melanotropic effect of KPT and KPV, 2500 B16.F1 melanoma cells were seeded out on 96-well tissue culture plates in quintuplicate at a density of 2500 cells/well in regular culture medium. On the next day routine medium was changed to medium containing the above peptides at 10^−6, 10^−8 and 10^−10 M vs. medium containing the superpotent MSH analogue NDP-α-MSH (10^−8 M). The latter served as positive control while cells without any other stimulus served as negative control. Cells were then cultured for 72 hrs followed by photometric measurement of the optical density (wavelength 405 nm) of each well. This procedure measures the amount of extracellular melanin produced by the cells according to the well-established and described methodology by Siegrist & Eberle, Anal. Biochem. 1986; 159: 191-197.

| Compound | antioxidative protective effects in human dermal fibroblasts (summary statement) (human dermal fibroblasts) | effect on UVA-induced intracellular amplification of ROS compared with vitamin C (ascorbate) (human dermal fibroblasts) | effect on UVA-induced intracellular amplification of ROS ("oxidative stress") (human dermal fibroblasts) | melanotropic effect (extracellular melanin accumulation) (B16.F1 melanoma cells) | melanotropic effect (extracellular melanin accumulation), positive control (B16.F1 melanoma cells; 10^-8 M) |
| --- | --- | --- | --- | --- | --- |
| NC(=O)[C@@H]1CCCN1C(=O)[C@H](Cc1c[nH]cn1)NC(=O)[C@@H]1CCC(=O)N1 [TRH, L-Pyroglutamyl-L-histidyl-L-prolinamid] | show antioxidative protective effects | comparable with that of vitamin C | suppressed UVA-induced intracellular amplification of ROS | – | – |
| Lys-Pro-Val [KPV] | show antioxidative protective effects | – | suppressed UVA-induced intracellular amplification of ROS | did not have any melanotropic effect | – |
| Lys-[dP]-Thr [KPT] | show antioxidative protective effects | comparable with that of vitamin C | suppressed UVA-induced intracellular amplification of ROS | did not have any melanotropic effect | – |
| NDP-α-MSH [reference compound] | – | – | – | – | p<0.001 vs. control |
